Data: patent US20030162661A1, “2,4-Diamino-1,3,5-triazines, their preparation, and their use as herbicides and plant growth regulators” (priority 1998, published 2003)

Columns and labels:
Assay type in all cases: in vivo
[1] = system: harmful plants such as Stellaria media, Lolium multiflorum, Amaranthus retroflexus, Sinapis alba, Avena sativa and Setaria viridis; assay: Pre-emergence effect on weeds (greenhouse pot test, visual scoring); settings: applied pre-emergence at an application rate of 1 kg or less of active substance per hectare; scored visually after 3 to 4 weeks vs untreated controls
Source text: 1 Pre-emergence Effect on Weeds
Seeds or rhizome pieces of monocotyledonous and dicotyledonous weeds plants are placed in sandy loam soil in plastic pots and covered with soil. The compounds according to the invention which are formulated in the form of wettable powders or emulsion concentrates are then applied to the surface of the soil cover in the form of an aqueous suspension or emulsion at an application rate of 600 to 800 l of water/ha (converted), in various dosages.

[2] = system: harmful plants such as Sinapis alba, Echinochloa crus- galli, Lolium multiflorum, Stellaria media, Cyperus iria, Amaranthus retroflexus, Setaria viridis and …; assay: Post-emergence effect on weeds (greenhouse pot test, visual scoring); settings: applied post-emergence (three-leaf stage) at an application rate of 1 kg and less of active substance per hectare; scored visually after about 3 to 4 weeks vs untreated controls
Description: 2. Post-emergence Effect on Weeds
Seeds or rhizome pieces of monocotyledonous and dicotyledonous weeds are placed in sandy loam soil in plastic pots, covered with soil and grown in the greenhouse under good growth conditions. Three weeks after sowing, the test plants are treated in the three-leaf stage. The compounds according to the invention which are formulated as wettable powders or as emulsion concentrates are sprayed in various dosages on the green parts of the plants at an application rate of 600 to 800 l of water/ha (converted). After the test plants have remained in the greenhouse for about 3 to 4 weeks under ideal growth conditions, the effect of the preparations is scored visually by comparison with untreated controls. The agents according to the invention also have a good herbicidal post-emergence action against a broad range of economically important grass weeds and dicotyledonous weeds.

[3] = system: harmful plants which are typical for rice cultivation, such as Cyperus monti, Echinochloa crus-galli and Sagittaria pygmaea; assay: Effect on harmful plants in rice (paddy rice conditions, visual scoring); settings: applied into the flooding water, various dosages, scored visually approximately three weeks after application
Description: 3. Effect on Harmful Plants in Rice
Transplanted and seeded rice and typical broad-leaved and monocotyledonous rice weeds are grown in the greenhouse to the three-leaf stage (Echinochloa crus- galli 1.5 leaf) under paddy rice conditions (depth of the water: 2-3 cm) in sealed plastic pots. They are then treated with the compounds according to the invention. To this end, the formulated active substances are suspended, dissolved or emulsified in water and applied in various dosages by pouring into the water with which the test plants are flooded. After this treatment, the test plants are placed in the greenhouse under ideal growth conditions and kept thus over the entire experimental period.
Approximately three weeks after application, the test is evalued by means of visually scoring the damage to the plants by comparison with untreated controls.

Row | Structure (SMILES) | herbicidal action against harmful plants, pre-emergence [1] | herbicidal action against harmful plants, post-emergence [2] | herbicidal action against harmful plants typical for rice cultivation [3]
1 | CC(C)c1nc(N)nc(NC(CCc2ccccc2)C2CCC2)n1 (stereo not drawn) [Example 4-1] | very good herbicidal action | very good herbicidal action | good herbicidal action
2 | CC(C)(F)c1nc(N)nc(NC(CCc2ccccc2)C2CCC2)n1 (stereo not drawn) [Example 4-2, 2-Amino-4-(1-fluoro-1-methylethyl)-6-(3-phenyl-1-cyclobutyl-1-propylamino)-1,3,5-triazine] | very good herbicidal action | very good herbicidal action | good herbicidal action
3 | Cc1cccc(CCC(Nc2nc(N)nc(C(C)C)n2)C2CCC2)c1 (stereo not drawn) [Example 4-14] | very good herbicidal action | very good herbicidal action | good herbicidal action
4 | Cc1cccc(CCC(Nc2nc(N)nc(C(C)(C)F)n2)C2CCC2)c1 (stereo not drawn) [Example 4-15] | very good herbicidal action | very good herbicidal action | good herbicidal action
5 | COc1cccc(CCC(Nc2nc(N)nc(C(C)C)n2)C2CCC2)c1 (stereo not drawn) [Example 4-23] | very good herbicidal action | very good herbicidal action | good herbicidal action
6 | COc1cccc(CCC(Nc2nc(N)nc(C(C)(C)F)n2)C2CCC2)c1 (stereo not drawn) [Example 4-24] | very good herbicidal action | very good herbicidal action | good herbicidal action
7 | CC(C)(C#N)c1nc(N)nc(NC(CCc2ccccc2)C2CC2)n1 (stereo not drawn) [Example 9-4] | very good herbicidal action | very good herbicidal action | good herbicidal action
8 | CC(C)(F)c1nc(N)nc(NC(CCc2cccc(F)c2)C2CC2)n1 (stereo not drawn) [Example 9-5] | very good herbicidal action | very good herbicidal action | good herbicidal action
9 | CC(C)c1nc(N)nc(NC(CCc2cccc(Cl)c2)C2CC2)n1 (stereo not drawn) [Example 9-7] | very good herbicidal action | very good herbicidal action | good herbicidal action
10 | CC(C)c1nc(N)nc(NC(CCc2ccccc2)C2CC2)n1 (stereo not drawn) [Example 9-9] | very good herbicidal action | very good herbicidal action | good herbicidal action
11 | CC(C)(F)c1nc(N)nc(NC(CCc2ccccc2)C2CC2)n1 (stereo not drawn) [Example 9-10] | very good herbicidal action | very good herbicidal action | good herbicidal action
